Results from patent publication US20060127324A1, “Chewable oral compositions containing an anti-microbial agent and methods of formulating the compositions to have acceptable germ kill properties and taste” (Cadbury Adams USA LLC, priority 2004, published 2006).
In brackets after ≈: the same amount, converted by molar mass.

Key:
[1] = Release of anti-microbial agent from chewing gum composition after 10 minutes of chewing; format: physicochemical; conditions: for Q factor (100/percentage released): chewing gum composition; for Release Rate (%) After 10 Minutes of Chewing: chewing gum compositions
Protocol: The germ kill potential (P) therefore is determined by the product of the concentration of at least one anti-microbial agent contained in the composition and the germ kill rating of each anti-microbial agent. The result is in turn multiplied by the mass of the composition and a factor Q as defined previously which is a measure of how easily the anti-microbial agent is released from the oral composition into the oral cavity. The Q factor may be readily determined for a given oral composition by comparing the amount of the anti-microbial agent present in the oral composition before placement in the oral cavity and how much remains after placement in the oral cavity for a fixed period of time. For other compositions such as chewing gum compositions, the release rate of the anti-microbial agent is much slower. Typically only a portion of the anti-microbial agent is released instantaneously and/or on initial chewing. For example, the release rate of anti-microbial agents after 10 minutes of chewing can be as low as less than 10%. […] Thus, the factor Q is 11.1 (100%/9%). The targeted (P) value selected for the chewing gum composition would therefore have to be about 11.1 times greater than the (P) value for the corresponding pressed mint composition.

[2] = system: microorganisms found in the oral cavity; test: Germ kill rating (R), ratio of ATC and MIC; conditions: mint lozenge having a weight of 1.5 grams
Text: The germ kill rating (R) is therefore a quantitative indication of the range of concentrations of the anti-microbial agent (i.e. effective concentration range) that may be employed to achieve both the desirable germ kill properties and acceptable taste. By way of example, an anti-microbial agent having a germ kill rating of 10 has an effective concentration range twice as large as an anti-microbial agent having a germ kill rating of 5. The germ kill rating (R) of each anti-microbial agent used in the oral composition is the ratio of the maximum acceptable taste concentration (ATC) of the anti-microbial agent and the minimum inhibitory concentration (MIC). The germ kill rating (R) is therefore a value representative of the suitability of a particular anti-microbial agent to provide a balance between acceptable taste and germ killing efficacy. A relatively high (R) value is indicative of an anti-microbial agent that can be used in a relatively large range of concentrations without adversely effecting taste while still obtaining the desired germ kill properties. […] The maximum acceptable taste concentration (ATC) of an anti-microbial agent can be determined through known population sampling methods. […] The results are averaged and analyzed according to known statistical methods to yield the ATC value for a particular anti-microbial agent in a given solid carrier (e.g. mint lozenge). […]

[3] = system: microorganisms found in the oral cavity; test: Minimum inhibitory concentration (MIC) of anti-microbial agent; format: cell-based
Text: The germ kill rating (R) of each anti-microbial agent used in the oral composition is the ratio of the maximum acceptable taste concentration (ATC) of the anti-microbial agent and the minimum inhibitory concentration (MIC). The germ kill rating (R) is therefore a value representative of the suitability of a particular anti-microbial agent to provide a balance between acceptable taste and germ killing efficacy. A relatively high (R) value is indicative of an anti-microbial agent that can be used in a relatively large range of concentrations without adversely effecting taste while still obtaining the desired germ kill properties. […] However, thymol has a very low maximum acceptable taste concentration and therefore provides a germ kill rating (R) of 1.1 which is lower than the other four essential oils in Table 2 even though the other essential oils have a higher minimum inhibitory concentration.

SMILES | Q factor (100/percentage released) [1] | Release Rate (%) After 10 Minutes of Chewing [1] | Release Rate (%) After 10 Minutes of Chewing ([1]; listed as eucalyptol) | Germ Kill Rating (R) [2] | MIC [3]
CC12CCC(CC1)C(C)(C)O2 [Eucalyptol] | 5.025 | 19.9% | 19.9% |  | 
Cc1ccc(C(C)C)c(O)c1 [Thymol] |  |  |  | 1.1 | 87 µg/mL (≈ 579 µM)
CC(C)[C@@H]1CC[C@@H](C)CC1=O [Menthone] |  | 10.4% |  |  | 
COC(=O)c1ccccc1O [Methyl Salicylate] |  | 8.9% |  |  | 
CC1CCC(C(C)C)C(O)C1 (centres unmarked) [Menthol] | 11.1 | 9% |  | 24 | 500 µg/mL (≈ 3200 µM)
